Test results taken from patent US20100267561A1, “HERBICIDAL PYRIDAZINONE DERIVATIVES” (priority 2007, published 2010).

What was measured:
Format in all cases: in vivo
corn (Zea mays) = experiment: Test A pre-/postemergence plant response
How it was run: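 Seeds in loam soil/sand blend treated preemergence by directed soil spray, with simultaneous postemergence spray on 2–10 cm plants at one- to two-leaf stage; compounds in non-phytotoxic solvent with surfactant. Injury visually rated versus untreated controls after about 10 days in greenhouse, 0 (no effect) to 100 (complete control).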

[1] = system: Italian ryegrass (Lolium multiflorum); experiment: Test C pre-/postemergence plant response
How it was run: (§1)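 Test chemicals in a non-phytotoxic solvent with surfactant were applied preemergence, and some were also applied postemergence to plants 2–18 cm tall (1- to 4-leaf stage). Visual ratings against controls were made after 15–25 days in a controlled environment, on a 0–100 scale where 100 means complete control.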

[2] = system: annual bluegrass (Poa annua); experiment: Test C pre-/postemergence plant response
How it was run: as §1

[3] = system: blackgrass (Alopecurus myosuroides); experiment: Test C pre-/postemergence plant response
How it was run: as §1

[4] = system: canarygrass (Phalaris minor); experiment: Test C pre-/postemergence plant response
How it was run: as §1

canola (Brassica rapa) = experiment: Test C pre-/postemergence plant response
How it was run: as §1

[5] = system: downy bromegrass (Bromus tectorum); experiment: Test C pre-/postemergence plant response
How it was run: as §1

[6] = system: green foxtail (Setaria viridis); experiment: Test C pre-/postemergence plant response
How it was run: as §1

[7] = system: pigweed (Amaranthus retroflexus); experiment: Test C pre-/postemergence plant response
How it was run: as §1

[8] = system: spring barley (Hordeum vulgare); experiment: Test C pre-/postemergence plant response
How it was run: as §1

[9] = system: spring wheat (Triticum aestivum); experiment: Test C pre-/postemergence plant response
How it was run: as §1

[10] = system: wild mustard (Sinapis arvensis); experiment: Test C pre-/postemergence plant response
How it was run: as §1

wild oat (Avena fatua) = experiment: Test C pre-/postemergence plant response
How it was run: as §1

[11] = system: windgrass (Apera spica-venti); experiment: Test C pre-/postemergence plant response
How it was run: as §1

[12] = system: winter barley (Hordeum vulgare); experiment: Test C pre-/postemergence plant response
How it was run: as §1

[13] = system: winter wheat (Triticum aestivum); experiment: Test C pre-/postemergence plant response
How it was run: as §1

[14] = Postemergence, 8 g ai/ha, scale 0 to 100, 0 no effect, 100 complete control
[15] = Postemergence, 16 g ai/ha, scale 0 to 100, 0 no effect, 100 complete control
[16] = Postemergence, 31 g ai/ha, scale 0 to 100, 0 no effect, 100 complete control
[17] = Postemergence, 62 g ai/ha, scale 0 to 100, 0 no effect, 100 complete control
[18] = Preemergence, 8 g ai/ha, scale 0 to 100 (0 no effect, 100 complete control)
[19] = Preemergence, 16 g ai/ha, scale 0 to 100 (0 no effect, 100 complete control)
[20] = Preemergence, 31 g ai/ha, scale 0 to 100 (0 no effect, 100 complete control)
[21] = Preemergence, 62 g ai/ha, scale 0 to 100, 0 no effect, 100 complete control

Cc1cc(-c2ccc(C(F)(F)F)c(F)c2)nn1-c1c(O)c(C(F)(F)F)nn(C)c1=O [Compound 44]
Plant response rating, Corn (corn (Zea mays); Postemergence, 31 g ai/ha, 0 to 100 scale, 0 no effect, 100 complete control): 70 | Plant response rating, Corn (corn (Zea mays); Postemergence, 125 g ai/ha, 0 to 100 scale, 0 no effect, 100 complete control): 90 | Plant response rating, Corn (corn (Zea mays); Preemergence, 31 g ai/ha, 0 to 100 scale, 0 is no effect, 100 is complete control): 30 | Plant response rating, Corn (corn (Zea mays); Preemergence, 125 g ai/ha, 0 to 100 scale (0 no effect, 100 complete control)): 80 | Plant response rating, Ryegrass, Italian [1, 14]: 90 | Plant response rating, Ryegrass, Italian [1, 15]: 98 | Plant response rating, Ryegrass, Italian [1, 16]: 100 | Plant response rating, Ryegrass, Italian [1, 17]: 100 | Plant response rating, Ryegrass, Italian [1, 18]: 90 | Plant response rating, Ryegrass, Italian [1, 19]: 100 | Plant response rating, Ryegrass, Italian [1, 20]: 100 | Plant response rating, Ryegrass, Italian [1, 21]: 100 | Plant response rating, Bluegrass [2, 14]: 0 | Plant response rating, Bluegrass [2, 15]: 0 | Plant response rating, Bluegrass [2, 16]: 0 | Plant response rating, Bluegrass [2, 17]: 0 | Plant response rating, Bluegrass [2, 18]: 0 | Plant response rating, Bluegrass [2, 19]: 0 | Plant response rating, Bluegrass [2, 20]: 0 | Plant response rating, Bluegrass [2, 21]: 0 | Plant response rating, Blackgrass [3, 14]: 90 | Plant response rating, Blackgrass [3, 15]: 98 | Plant response rating, Blackgrass [3, 16]: 100 | Plant response rating, Blackgrass [3, 17]: 100 | Plant response rating, Blackgrass [3, 19]: 25 | Plant response rating, Blackgrass [3, 20]: 100 | Plant response rating, Blackgrass [3, 21]: 100 | Plant response rating, Canarygrass [4, 14]: 75 | Plant response rating, Canarygrass [4, 15]: 80 | Plant response rating, Canarygrass [4, 16]: 90 | Plant response rating, Canarygrass [4, 17]: 100 | Plant response rating, Canarygrass [4, 18]: 30 | Plant response rating, Canarygrass [4, 19]: 65 | Plant response rating, Canarygrass [4, 20]: 75 | Plant response rating, Canarygrass [4, 21]: 85 | Plant response rating, Canola (canola (Brassica rapa); [14]): 0 | Plant response rating, Canola (canola (Brassica rapa); [15]): 0 | Plant response rating, Canola (canola (Brassica rapa); [16]): 0 | Plant response rating, Canola (canola (Brassica rapa); [17]): 0 | Plant response rating, Canola (canola (Brassica rapa); [18]): 0 | Plant response rating, Canola (canola (Brassica rapa); [19]): 0 | Plant response rating, Canola (canola (Brassica rapa); [20]): 0 | Plant response rating, Canola (canola (Brassica rapa); [21]): 0 | Plant response rating, Bromegrass, Downy [5, 14]: 15 | Plant response rating, Bromegrass, Downy [5, 15]: 40 | Plant response rating, Bromegrass, Downy [5, 16]: 65 | Plant response rating, Bromegrass, Downy [5, 17]: 75 | Plant response rating, Bromegrass, Downy [5, 18]: 0 | Plant response rating, Bromegrass, Downy [5, 19]: 20 | Plant response rating, Bromegrass, Downy [5, 20]: 50 | Plant response rating, Bromegrass, Downy [5, 21]: 80 | Plant response rating, Foxtail, Green [6, 14]: 50 | Plant response rating, Foxtail, Green [6, 15]: 95 | Plant response rating, Foxtail, Green [6, 16]: 98 | Plant response rating, Foxtail, Green [6, 17]: 100 | Plant response rating, Foxtail, Green [6, 18]: 15 | Plant response rating, Foxtail, Green [6, 19]: 90 | Plant response rating, Foxtail, Green [6, 20]: 100 | Plant response rating, Foxtail, Green [6, 21]: 100 | Plant response rating, Pigweed [7, 14]: 0 | Plant response rating, Pigweed [7, 15]: 0 | Plant response rating, Pigweed [7, 16]: 0 | Plant response rating, Pigweed [7, 17]: 0 | Plant response rating, Pigweed [7, 18]: 0 | Plant response rating, Pigweed [7, 19]: 20 | Plant response rating, Pigweed [7, 20]: 20 | Plant response rating, Pigweed [7, 21]: 20 | Plant response rating, Barley, Spring [8, 14]: 60 | Plant response rating, Barley, Spring [8, 15]: 95 | Plant response rating, Barley, Spring [8, 16]: 95 | Plant response rating, Barley, Spring [8, 17]: 98 | Plant response rating, Barley, Spring [8, 18]: 0 | Plant response rating, Barley, Spring [8, 19]: 60 | Plant response rating, Barley, Spring [8, 20]: 60 | Plant response rating, Barley, Spring [8, 21]: 75 | Plant response rating, Wheat, Spring [9, 14]: 70 | Plant response rating, Wheat, Spring [9, 15]: 95 | Plant response rating, Wheat, Spring [9, 16]: 95 | Plant response rating, Wheat, Spring [9, 17]: 100 | Plant response rating, Wheat, Spring [9, 18]: 0 | Plant response rating, Wheat, Spring [9, 19]: 20 | Plant response rating, Wheat, Spring [9, 20]: 70 | Plant response rating, Wheat, Spring [9, 21]: 75 | Plant response rating, Mustard, Wild [10, 14]: 0 | Plant response rating, Mustard, Wild [10, 15]: 0 | Plant response rating, Mustard, Wild [10, 16]: 0 | Plant response rating, Mustard, Wild [10, 17]: 0 | Plant response rating, Mustard, Wild [10, 18]: 0 | Plant response rating, Mustard, Wild [10, 19]: 0 | Plant response rating, Mustard, Wild [10, 20]: 0 | Plant response rating, Oat, Wild (wild oat (Avena fatua); [14]): 100 | Plant response rating, Oat, Wild (wild oat (Avena fatua); [15]): 100 | Plant response rating, Oat, Wild (wild oat (Avena fatua); [16]): 100 | Plant response rating, Oat, Wild (wild oat (Avena fatua); [17]): 100 | Plant response rating, Oat, Wild (wild oat (Avena fatua); [18]): 50 | Plant response rating, Oat, Wild (wild oat (Avena fatua); [19]): 75 | Plant response rating, Oat, Wild (wild oat (Avena fatua); [20]): 80 | Plant response rating, Oat, Wild (wild oat (Avena fatua); [21]): 90 | Plant response rating, Windgrass [11, 14]: 50 | Plant response rating, Windgrass [11, 15]: 90 | Plant response rating, Windgrass [11, 16]: 95 | Plant response rating, Windgrass [11, 17]: 100 | Plant response rating, Windgrass [11, 18]: 100 | Plant response rating, Windgrass [11, 19]: 100 | Plant response rating, Windgrass [11, 20]: 100 | Plant response rating, Windgrass [11, 21]: 100 | Plant response rating, Barley, Winter [12, 14]: 20 | Plant response rating, Barley, Winter [12, 15]: 75 | Plant response rating, Barley, Winter [12, 16]: 90 | Plant response rating, Barley, Winter [12, 17]: 95 | Plant response rating, Barley, Winter [12, 18]: 0 | Plant response rating, Barley, Winter [12, 19]: 50 | Plant response rating, Barley, Winter [12, 20]: 75 | Plant response rating, Barley, Winter [12, 21]: 75 | Plant response rating, Wheat, Winter [13, 14]: 75 | Plant response rating, Wheat, Winter [13, 15]: 80 | Plant response rating, Wheat, Winter [13, 16]: 95 | Plant response rating, Wheat, Winter [13, 17]: 98 | Plant response rating, Wheat, Winter [13, 18]: 40 | Plant response rating, Wheat, Winter [13, 19]: 65 | Plant response rating, Wheat, Winter [13, 21]: 70
